Target: T1, SARM1 (Homo sapiens, UniProt Q6SZW1)
T1 construct: AviTag […]; made in house; host or cells: NRK1-HEK293T cells, transiently transfected; the clarified sonicated lysate was used without purification
T1 sequence (Q6SZW1 with tags, fused parts or gaps): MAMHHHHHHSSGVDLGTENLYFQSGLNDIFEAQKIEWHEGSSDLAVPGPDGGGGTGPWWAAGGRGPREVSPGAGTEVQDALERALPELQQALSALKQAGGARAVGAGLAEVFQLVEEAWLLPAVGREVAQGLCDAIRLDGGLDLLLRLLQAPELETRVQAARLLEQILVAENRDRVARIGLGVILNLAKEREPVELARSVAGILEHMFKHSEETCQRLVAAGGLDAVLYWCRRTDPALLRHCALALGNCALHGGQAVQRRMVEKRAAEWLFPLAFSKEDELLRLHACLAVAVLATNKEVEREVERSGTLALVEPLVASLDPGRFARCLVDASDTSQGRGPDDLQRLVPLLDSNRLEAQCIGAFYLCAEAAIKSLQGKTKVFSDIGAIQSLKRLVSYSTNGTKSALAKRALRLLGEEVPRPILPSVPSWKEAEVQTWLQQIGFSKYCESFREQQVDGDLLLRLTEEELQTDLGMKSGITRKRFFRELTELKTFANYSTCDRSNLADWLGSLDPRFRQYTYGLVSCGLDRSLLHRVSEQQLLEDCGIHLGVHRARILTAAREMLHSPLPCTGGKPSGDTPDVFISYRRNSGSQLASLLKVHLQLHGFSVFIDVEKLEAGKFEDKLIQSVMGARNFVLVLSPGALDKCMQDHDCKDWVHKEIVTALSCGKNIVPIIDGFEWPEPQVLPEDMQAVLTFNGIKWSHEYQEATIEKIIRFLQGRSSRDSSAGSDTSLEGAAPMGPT
Assay: ARM-SAM-TIR SARM1 IC50 assay (NADase activity, NAD+ cleavage)
Type: biochemical
Conditions: ARM-SAM-TIR lysate 5 μg/mL from NRK1-HEK293T cells; 2 h pre-incubation with compound, 5 μM NAD+, 2 hr room temperature; NAD+ and ADPR by RapidFire mass spectrometry; read-out: SARM1 IC50
Excerpt: This Example describes an assay of ARM-SAM-TTR NADase activity and use of this assay to measure the efficacy of compounds of Formula I or Formula II to block SARM1 mediated NAD+ cleavage. This assay is optimized in such a way as to characterize the efficacy of the compounds in Formula I or Formula II to inhibit SARM1 activity and to calculate an IC50 value for each compound. This assay makes use of full length SARI, which encompasses the ARM, SAM and TTR domains.
Preparation of ARM-SAM-TIR Lysate (STL)
NRK1-HEK293T cells were seeded onto 150 cm^2 plates at 20×10^6 cells per plate. The next day, the cells were transfected with 15 μg ARM-SAM-TIR expression plasmid, SEQ ID NO: 1.
The cultures were supplemented with 1 mM NR at time of transfection to minimize toxicity from ARM-SAM-TIR overexpression. Forty-eight hours after transfection, cells were harvested, pelleted by centrifugation at 1,000 rpm (Sorvall ST 16R centrifuge, Thermo Fisher), and washed once with cold PBS (0.01 M phosphate buffered saline NaCl 0.138 M; KCl 0.0027 M; pH 7.4). The cells were resuspended in PBS with protease inhibitors (cOmplete™ protease inhibitor cocktail, Roche product #11873580001) and cell lysates were prepared by sonication (Branson Sonifer 450, output=3, 20 episodes of stroke). The lysates were centrifuged (12,000×g for 10 min at 4° C.) to remove cell debris and the supernatants (containing ARM-SAM-TIR protein) were stored at −80° C. for later use in the in vitro ARM-SAM-TIR NADase assay (see below). Protein concentration was determined by the Bicinchoninic (BCA) method and used to normalize lysate concentrations.
ARM-SAM-TIR IC50 Assay of Formula I or Formula II Compounds.
The enzymatic assay was performed in a 384-well polypropylene plate in Dulbecco's PBS buffer in a final assay volume of 20 μL. ARM-SAM-TIR lysate with a final concentration of 5 μg/mL was pre-incubated with the respective compound at 1% DMSO final assay concentration over 2 h at room temperature. The reaction was initiated by addition of 5 μM final assay concentration of NAD+ as substrate. After a 2 hr room temperature incubation, the reaction was terminated with 40 μL of stop solution of 7.5% trichloroactetic acid in acetonitrile. The NAD+ and ADPR concentrations were analyzed by a RapidFire High Throughput Mass Spectrometry System (Agilent Technologies, Santa Clara, CA) using an API4000 triple quadrupole mass spectrometer (AB Sciex Framingham, MA).

IC50 [µM]	Compound
< 5	N#Cc1cc(N2CCCC(c3ncccn3)C2)nc2ccc(Br)cc12 (stereo not shown) [Example 152]
5 to 15	CNC(=O)C1CCN(c2cc(C#N)c3cc(Cl)ccc3n2)C1 (stereo not shown) [Example 68]
< 5	N#Cc1c(Cl)c(N2CC[C@@H](O)C2)nc2ccc(Cl)cc12 [Example 90]
< 5	CO[C@@H]1CCCN(c2cc(C#N)c3cc(Cl)ccc3n2)C1 [Example 60]
< 5	N#Cc1cc(N2CCC(N)CC2)nc2ccc(Br)cc12 [Example 20]
< 5	CN(Cc1ccccc1)C(=O)C1CCN(c2cc(C#N)c3cc(Br)ccc3n2)CC1 [Example 125]
< 5	N#Cc1cc(NC2CCN(Cc3cccnc3)CC2)nc2ccc(Cl)cc12 [Example 44]
> 30	Cc1cnc(CNc2cc(C#N)c3cc(Cl)ccc3n2)o1 [Example 28]
< 5	N#Cc1cc(N2CCC[C@@H]2C(=O)N2CCCC2)nc2ccc(Br)cc12 [Example 146]
< 5	CC(=O)N1CCN(c2cc(C#N)c3cc(Cl)ccc3n2)CC1 [Example 35]
> 30	N#Cc1cc(NC2CC2)nc2ccc(Cl)cc12 [Example 51]
> 30	Cn1c(CNc2cc(C#N)c3cc(Cl)ccc3n2)nc2cccnc21 [Example 32]
< 5	Cc1nccnc1C(=O)N[C@H]1CCCN(c2cc(C#N)c3cc(Br)ccc3n2)C1 [Example 134]
< 5	COc1cc(C#N)c2cc(Cl)ccc2n1 [Example 14]
< 5	N#Cc1cc(N2CCCC(c3ccccn3)C2)nc2ccc(Br)cc12 (stereo not shown) [Example 150]
< 5	N#Cc1cc(N2CCCC[C@H]2CO)nc2ccc(Cl)cc12 [Example 95]
